According to patent US6908935B2, “Calcium receptor modulating agents” (Amgen Inc., priority 2002, dated 2005):

These molecules were tested against T1, human parathyroid cell Ca^2+ receptor (hPCaR) (Homo sapiens, UniProt P41180) (assay: [Ca2+]i measurement with fluo-3 in HEK 293 4.0-7 cells stably transfected with hPCaR). Conditions: fluo-3 fluorescence (485/530 nm), effect on [Ca^2+]i.
T1 construct: expressed in transfected cells
T1 sequence (P41180 20-1078): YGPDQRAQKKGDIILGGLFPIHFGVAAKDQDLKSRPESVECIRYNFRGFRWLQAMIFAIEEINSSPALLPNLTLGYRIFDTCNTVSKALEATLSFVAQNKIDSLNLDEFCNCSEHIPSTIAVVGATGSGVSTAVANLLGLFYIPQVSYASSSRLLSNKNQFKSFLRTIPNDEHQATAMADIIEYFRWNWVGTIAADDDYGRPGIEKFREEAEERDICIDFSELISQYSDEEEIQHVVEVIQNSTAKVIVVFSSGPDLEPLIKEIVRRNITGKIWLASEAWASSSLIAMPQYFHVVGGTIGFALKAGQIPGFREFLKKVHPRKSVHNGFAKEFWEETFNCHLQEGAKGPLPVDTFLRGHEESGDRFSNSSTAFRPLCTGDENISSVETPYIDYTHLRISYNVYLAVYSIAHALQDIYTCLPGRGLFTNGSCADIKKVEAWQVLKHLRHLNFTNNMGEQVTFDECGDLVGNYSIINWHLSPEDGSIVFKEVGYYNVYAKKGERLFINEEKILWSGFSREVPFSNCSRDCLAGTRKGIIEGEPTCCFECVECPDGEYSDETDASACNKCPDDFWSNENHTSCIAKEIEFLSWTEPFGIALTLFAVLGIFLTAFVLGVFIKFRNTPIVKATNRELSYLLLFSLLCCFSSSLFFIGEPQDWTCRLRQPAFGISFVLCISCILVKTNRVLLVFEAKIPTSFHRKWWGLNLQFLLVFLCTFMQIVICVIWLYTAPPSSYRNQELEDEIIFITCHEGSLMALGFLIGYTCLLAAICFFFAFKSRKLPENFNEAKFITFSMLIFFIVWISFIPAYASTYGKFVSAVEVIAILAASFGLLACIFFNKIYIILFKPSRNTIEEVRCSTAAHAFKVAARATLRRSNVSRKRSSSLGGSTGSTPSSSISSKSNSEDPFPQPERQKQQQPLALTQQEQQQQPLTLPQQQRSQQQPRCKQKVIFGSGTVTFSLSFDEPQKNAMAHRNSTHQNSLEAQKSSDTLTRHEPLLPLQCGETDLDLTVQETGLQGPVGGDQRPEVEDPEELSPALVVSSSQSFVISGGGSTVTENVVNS
Format: cell-based
Procedure, shortened: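 Cytosolic [Ca2+] was read as fluo-3 fluorescence (ex 485/em 530 nm) after compound addition to washed cells. Cells were hPCaR-transfected HEK 293 clone 7, dye-loaded 30 min at 37 °C with 2 μM fluo-3 acetoxymethyl ester in HEPES-buffered saline pH 7.45 containing 1 mM CaCl2 and 0.5% BSA.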

EC50 | SMILES
≤ 10 µM | Cc1ccc([C@@H](C)NCc2cccc(-c3ccc(C)c(C)c3)c2)cc1 [(1R)-N-((3′,4′-dimethyl-1,1′-biphenyl-3-yl)methyl)-1-(4-methylphenyl)ethanamine]
≤ 10 µM | COc1cccc(-c2cc(CN[C@H](C)c3cccc4ccccc34)ccc2OC)c1 [(1R)-N-((3′,6-bis(methyloxy)-1,1′-biphenyl-3-yl)methyl)-1-(1-naphthalenyl)ethanamine]
≤ 10 µM | COc1cccc(-c2cc(CN[C@H](C)c3cccc(OC)c3)ccc2OC)c1 [(1R)-N-((3′,6-bis(methyloxy)-1,1′-biphenyl-3-yl)methyl)-1-(3-(methyloxy)phenyl)ethanamine]
≤ 10 µM | COc1cccc(-c2cccc(CN[C@H](C)c3cccc(OC)c3)c2)c1 [(1R)-N-((3′-(methyloxy)-1,1′-biphenyl-3-yl)methyl)-1-(3-(methyloxy)phenyl)ethanamine]
≤ 10 µM | COc1ccc([C@@H](C)NCc2cccc(-c3cccc(OC)c3)c2)cc1 [(1R)-N-((3′-(methyloxy)-1,1′-biphenyl-3-yl)methyl)-1-(4-(methyloxy)phenyl)ethanamine]
≤ 10 µM | COc1cccc(-c2cccc(CN[C@H](C)c3ccc(C)cc3)c2)c1 [(1R)-N-((3′-(methyloxy)-1,1′-biphenyl-3-yl)methyl)-1-(4-methylphenyl)ethanamine]
≤ 10 µM | COc1cccc(-c2cccc(CN[C@H](C)c3ccccc3)c2)c1 [(1R)-N-((3′-(methyloxy)-1,1′-biphenyl-3-yl)methyl)-1-phenylethanamine]
≤ 10 µM | Cc1noc(C)c1-c1ccc(CN[C@H](C)c2cccc3ccccc23)cc1 [(1R)-N-((4-(3,5-dimethyl-4-isoxazolyl)phenyl)methyl)-1-(1-naphthalenyl)ethanamine]
≤ 10 µM | C[C@@H](NCc1ccc(OC(F)F)c(-c2cccnc2)c1)c1cccc2ccccc12 [(1R)-N-((4-((difluoromethyl)oxy)-3-(3-pyridinyl)phenyl)methyl)-1-(1-naphthalenyl)ethanamine]
≤ 10 µM | COc1cccc([C@@H](C)NCc2ccc(OC(F)F)c(-c3cccnc3)c2)c1 [(1R)-N-((4-((difluoromethyl)oxy)-3-(3-pyridinyl)phenyl)methyl)-1-(3-(methyloxy)phenyl)ethanamine]
≤ 10 µM | C[C@@H](NCc1ccc(OC(F)F)c(-c2cccnc2)c1)c1ccccc1 [(1R)-N-((4-((difluoromethyl)oxy)-3-(3-pyridinyl)phenyl)methyl)-1-phenylethanamine]
≤ 10 µM | COc1ccc(CN[C@H](C)c2cccc3ccccc23)cc1-c1nccs1 [(1R)-N-((4-(methyloxy)-3-(1,3-thiazol-2-yl)phenyl)methyl)-1-(1-naphthalenyl)ethanamine]
≤ 10 µM | COc1ccc(CN[C@H](C)c2ccc3ccccc3c2)cc1-c1nccs1 [(1R)-N-((4-(methyloxy)-3-(1,3-thiazol-2-yl)phenyl)methyl)-1-(2-naphthalenyl)ethanamine]
≤ 10 µM | COc1ccc(CN[C@H](C)c2ccc(C)cc2)cc1-c1nccs1 [(1R)-N-((4-(methyloxy)-3-(1,3-thiazol-2-yl)phenyl)methyl)-1-(4-methylphenyl)ethanamine]
≤ 10 µM | COc1ccc(CN[C@H](C)c2ccccc2)cc1-c1nccs1 [(1R)-N-((4-(methyloxy)-3-(1,3-thiazol-2-yl)phenyl)methyl)-1-phenylethanamine]
≤ 10 µM | COc1ccc(CN[C@H](C)c2cccc3ccccc23)cc1-c1ccc2c(ccn2CC(F)(F)F)c1 [(1R)-N-((4-(methyloxy)-3-(1-(2,2,2-trifluoroethyl)-1H-indol-5-yl)phenyl)methyl)-1-(1-naphthalenyl)ethanamine]
≤ 10 µM | COc1ccc(CN[C@H](C)c2ccccc2)cc1-c1ccc2c(ccn2CC(F)(F)F)c1 [(1R)-N-((4-(methyloxy)-3-(1-(2,2,2-trifluoroethyl)-1H-indol-5-yl)phenyl)methyl)-1-phenylethanamine]
≤ 10 µM | COCC(=O)N1CCC(c2cc(CN[C@H](C)c3cccc4ccccc34)ccc2OC)CC1 [(1R)-N-((4-(methyloxy)-3-(1-((methyloxy)acetyl)-4-piperidinyl)phenyl)methyl)-1-(1-naphthalenyl)ethanamine]

EC50 | SMILES
≤ 10 µM | COc1ccc(CN[C@H](C)c2cccc3ccccc23)cc1-c1cnc2c(ccn2C)c1 [(1R)-N-((4-(methyloxy)-3-(1-methyl-1H-pyrrolo[2,3-b]pyridin-5-yl)phenyl)methyl)-1-(1-naphthalenyl)ethanamine]
≤ 10 µM | COc1cccc([C@@H](C)NCc2ccc(OC)c(-c3cnc4c(ccn4C)c3)c2)c1 [(1R)-N-((4-(methyloxy)-3-(1-methyl-1H-pyrrolo[2,3-b]pyridin-5-yl)phenyl)methyl)-1-(3-(methyloxy)phenyl)ethanamine]
≤ 10 µM | COc1ccc(CN[C@H](C)c2ccccc2)cc1-c1cnc2c(ccn2C)c1 [(1R)-N-((4-(methyloxy)-3-(1-methyl-1H-pyrrolo[2,3-b]pyridin-5-yl)phenyl)methyl)-1-phenylethanamine]
≤ 10 µM | COc1ccc(CN[C@H](C)c2cccc3ccccc23)cc1-c1ccc2c(c1)nc(C(F)(F)F)n2C [(1R)-N-((4-(methyloxy)-3-(1-methyl-2-(trifluoromethyl)-1H-benzimidazol-5-yl)phenyl)methyl)-1-(1-naphthalenyl)ethanamine]
≤ 10 µM | COc1ccc(CN[C@H](C)c2ccccc2)cc1-c1ccc2c(c1)nc(C(F)(F)F)n2C [(1R)-N-((4-(methyloxy)-3-(1-methyl-2-(trifluoromethyl)-1H-benzimidazol-5-yl)phenyl)methyl)-1-phenylethanamine]
≤ 10 µM | COc1ccc(CN[C@H](C)c2cccc3ccccc23)cc1C1CCN(C)CC1 [(1R)-N-((4-(methyloxy)-3-(1-methyl-4-piperidinyl)phenyl)methyl)-1-(1-naphthalenyl)ethanamine]
≤ 10 µM | COc1cccc([C@@H](C)NCc2ccc(OC)c(C3CCN(C)CC3)c2)c1 [(1R)-N-((4-(methyloxy)-3-(1-methyl-4-piperidinyl)phenyl)methyl)-1-(3-(methyloxy)phenyl)ethanamine]
≤ 10 µM | COc1ccc(CN[C@H](C)c2cccc3ccccc23)cc1N1CCCC1 [(1R)-N-((4-(methyloxy)-3-(1-pyrrolidinyl)phenyl)methyl)-1-(1-naphthalenyl)ethanamine]
≤ 10 µM | COc1ccc(CN[C@H](C)c2ccccc2)cc1N1CCCC1 [(1R)-N-((4-(methyloxy)-3-(1-pyrrolidinyl)phenyl)methyl)-1-phenylethanamine]
≤ 10 µM | COc1ccc(CN[C@H](C)c2cccc3ccccc23)cc1-n1cccc1 [(1R)-N-((4-(methyloxy)-3-(1H-pyrrol-1-yl)phenyl)methyl)-1-(1-naphthalenyl)ethanamine]
≤ 10 µM | COc1ccc(CN[C@H](C)c2ccccc2)cc1-n1cccc1 [(1R)-N-((4-(methyloxy)-3-(1H-pyrrol-1-yl)phenyl)methyl)-1-phenylethanamine]
≤ 10 µM | COc1ccc(CN[C@H](C)c2cccc3ccccc23)cc1-c1csc(N2CCCCC2)n1 [(1R)-N-((4-(methyloxy)-3-(2-(1-piperidinyl)-1,3-thiazol-4-yl)phenyl)methyl)-1-(1-naphthalenyl)ethanamine]
≤ 10 µM | COc1ccc(CN[C@H](C)c2ccccc2)cc1-c1csc(N2CCCCC2)n1 [(1R)-N-((4-(methyloxy)-3-(2-(1-piperidinyl)-1,3-thiazol-4-yl)phenyl)methyl)-1-phenylethanamine]
≤ 10 µM | COc1ccc(CN[C@H](C)c2ccccc2)cc1-c1cccnc1N1CCOCC1 [(1R)-N-((4-(methyloxy)-3-(2-(4-morpholinyl)-3-pyridinyl)phenyl)methyl)-1-phenylethanamine]
≤ 10 µM | COc1ccc(CN[C@H](C)c2ccccc2)cc1-c1cccnc1OCC(F)(F)F [(1R)-N-((4-(methyloxy)-3-(2-((2,2,2-trifluoroethyl)oxy)-3-pyridinyl)phenyl)methyl)-1-phenylethanamine]
≤ 10 µM | COc1ccc(CN[C@H](C)c2cccc3ccccc23)cc1-c1cnc(OCC(F)(F)F)nc1 [(1R)-N-((4-(methyloxy)-3-(2-((2,2,2-trifluoroethyl)oxy)-5-pyrimidinyl)phenyl)methyl)-1-(1-naphthalenyl)ethanamine]
≤ 10 µM | COc1ccc(CN[C@H](C)c2ccccc2)cc1-c1cnc(OCC(F)(F)F)nc1 [(1R)-N-((4-(methyloxy)-3-(2-((2,2,2-trifluoroethyl)oxy)-5-pyrimidinyl)phenyl)methyl)-1-phenylethanamine]
